Reference: patent US9827208B2, “Antioxidant dietary supplement compositions and methods for maintaining healthy skin” (priority 2004, dated 2017)
Values belong to the compound of their own block, whether it stands above or below them.

What was measured:
[1] = system: skin conditions arising from acne and rosacea; assay: Effect of oral antioxidant/lycopene compositions on skin conditions (acne, rosacea symptoms); format: in vivo, human; settings: oral administration, methods of treatment of the invention
[2] = Digestive tolerance of ingested high quantities of antioxidants; format: in vivo; settings: oral
[3] = Stability of gallic acid as additive in juice and food products; format: physicochemical; settings: acidity about pH 5 or lower
[4] = cited from earlier work

SMILES: COC(=O)c1cc(O)c(O)c(O)c1 [methyl gallate]
- effectiveness in improving skin conditions / suppressing skin ailments [1]: not effective

SMILES: CCCOC(=O)c1cc(O)c(O)c(O)c1 [propyl gallate]
- effectiveness in improving skin conditions / suppressing skin ailments [1]: not effective

- stability of gallic acid in un-oxidized form in juice/food product [3]: stable
SMILES: O=C(O)c1cc(O)c(O)c(O)c1 [gallic acid, trihydroxy benzoic acid]
- digestive system problems on ingestion of relatively high quantities [2]: can result in digestive system problems

SMILES: O=C1O[C@H]([C@@H](O)CO)C(O)=C1O [ascorbic acid]
- digestive system problems on ingestion of relatively high quantities [2]: can result in digestive system problems

SMILES: CC(C)=CCC/C(C)=C/C=C/C(C)=C/C=C/C(C)=C/C=C/C=C(C)/C=C/C=C(C)/C=C/C=C(\C)CCC=C(C)C [lycopene]
- effectiveness in improving skin conditions / suppressing skin ailments [1]: less effective
- bioavailability of lycopene on heating and processing tomatoes into tomato paste ([4]; heating and processing into tomato paste): increases bioavailability
- adsorption by humans of lycopene from dietary sources ([4]; humans, dietary sources): ≥ 2,5%
- bioavailability of lycopene in presence of oil ([4]; presence of oil): increases bioavailability
